# Results published in patent EP0067666A1, “Salts of antimicrobial naphthyridine and quinoline compounds and their production” (priority 1981, dated 1982).
# Experiments:
# Entero cloacae MA 2646 = assay: Antibacterial activity, MIC; assay type: cell-based; settings: based on content of compound A
# E. coli Vogel = assay: Antibacterial activity, MIC; assay type: cell-based; settings: based on content of compound A
# Klebs. pneumoniae MGH-2 = assay: Antibacterial activity, MIC; assay type: cell-based; settings: based on content of compound A
# Proteus retgeri M 1771 = assay: Antibacterial activity, MIC; assay type: cell-based; settings: based on content of compound A
# Pseudo. aeruginosa UI-18 = assay: Antibacterial activity, MIC; assay type: cell-based; settings: based on content of compound A
# Staph. aureus H 228 = assay: Antibacterial activity, MIC; assay type: cell-based; settings: based on content of compound A
# Staph. aureus UC-76 = assay: Antibacterial activity, MIC; assay type: cell-based; settings: based on content of compound A
# Strep. faecalis MGH-2 = assay: Antibacterial activity, MIC; assay type: cell-based; settings: based on content of compound A
# Strep. pneumoniae SV-1 = assay: Antibacterial activity, MIC; assay type: cell-based; settings: based on content of compound A
# Strep. pyogenes C-203 = assay: Antibacterial activity, MIC; assay type: cell-based; settings: based on content of compound A
# [1] = Solubility screening procedure (concentration and pH of filtrate); assay type: physicochemical; settings: for Conc. of CPD A: compound A + equimolar acid; for Conc. of CPD A / Conc. of CPD B: amino acid or base in deionized water, room temperature, filtrate, UV assay; for pH of Solution: pH of the filtrate; for Conc. of CPD B: compound B + equimolar acid
# Procedure: (§1) The amount of Compound A or Compound B calculated for selected concentrations was weighed into volumetric flasks. Equimolar quantities of combining acid, amino acid, or base were added either as solutions or in dry form. Deionized water was added to bring the volume to that desired for the preselected concentrations.. All flasks were sonicated for 15 minutes, allowed to stand at room temperature for 30 minutes, then filtered through a fine frit sintered glass funnel. After the pH of the filtrate was taken, suitable dilutions were made into 0.1N HCl for ultraviolet spectrophotometric assay of concentration. Ten fold dilutions of the original filtrates were made into standard I.V. solutions.
# [2] = Solubility of lyophilized and crystalline solids; assay type: physicochemical; settings: for pH of Solution Cryst.: crystalline solid; for pH of Solution Lyo. / Conc. of CPD A mg/ml Lyo.: lyophilized solid; for Conc. of CPD A mg/ml Lyo.: not necessarily maximum value
# [3] = 10x dilution of soluble forms with standard IV solutions (pH, precipitate); assay type: physicochemical; settings: for Solution 1 ppt 24 hr / Solution 3 ppt 24 hr / Solution 2 ppt 24 hr / Solution 4 ppt 24 hr: precipitate at 24 hr; for Concen. of Cpd A: undiluted solution used for the 10x dilutions
# Procedure: as §1
# [4] = Cpd A salt solution diluted 10x with 0.9% NaCl
# [5] = Cpd A salt solution diluted 10x with 5% Dextrose
# [6] = Cpd A salt solution diluted 10x with 5% Dextrose + 0.9% NaCl
# [7] = Cpd A salt solution diluted 10x with Lactated Ringer's Solution
# [8] = concentrated Cpd B solution (154-221 mg/ml) diluted 10x with 5% Dextrose
# [9] = concentrated Cpd B solution (154-221 mg/ml) diluted 10x with 5% Dextrose + 0.9% NaCl
# [10] = concentrated Cpd B solution (154-221 mg/ml) diluted 10x with Lactated Ringer's Solution
# [11] = concentrated Cpd B solution (155-221 mg/ml) diluted 10x with 0.9% NaCl
# [12] = concentrated Cpd B solution (155-221 mg/ml) diluted 10x with 0.9% NaCl, precipitate at 4 hr
# [13] = concentrated Cpd B solution diluted 10x with 5% Dextrose + 0.9% NaCl
# [14] = concentrated Cpd B solution diluted 10x with 5% Dextrose
# [15] = concentrated Cpd B solution diluted 10x with Lactated Ringer's Solution
# [16] = low-concentration Cpd B solution (26.2-52 mg/ml) diluted 10x with 0.9% NaCl
# [17] = separate undiluted concentrated Cpd B solution used for Solutions 2-4 only
# [18] = separate undiluted concentrated solution used for Solutions 2-4 only
# [19] = undiluted concentrated Cpd B solution used for the Solution 1 dilution
# [20] = undiluted concentrated solution (at least 155 mg/ml) used for the Solution 1 dilution (for most salts for all four solutions)
# [21] = undiluted low-concentration Cpd B solution (26.2-52 mg/ml)
# [22] = undiluted low-concentration solution (26.2-52 mg/ml), diluted with Solution 1 only
smiles,measurement,setting,value
CCn1cc(C(=O)O)c(=O)c2cc(F)c(N3CCNCC3)cc21 [A Galacturo-nate],MIC µg/ml Entero cloacae MA 2646,Entero cloacae MA 2646,0.1 µg/mL
same,MIC µg/ml E. coli Vogel,E. coli Vogel,<0.1 µg/mL
same,MIC µg/ml Klebs. pneumoniae MGH-2,Klebs. pneumoniae MGH-2,0.1 µg/mL
same,MIC µg/ml Proteus retgeri M 1771,Proteus retgeri M 1771,<0.1 µg/mL
same,MIC µg/ml Pseudo. aeruginosa UI-18,Pseudo. aeruginosa UI-18,0.1 µg/mL
same,MIC µg/ml Staph. aureus H 228,Staph. aureus H 228,0.8 µg/mL
same,MIC µg/ml Staph. aureus UC-76,Staph. aureus UC-76,<0.1 µg/mL
same,MIC µg/ml Strep. faecalis MGH-2,Strep. faecalis MGH-2,1.6 µg/mL
same,MIC µg/ml Strep. pneumoniae SV-1,Strep. pneumoniae SV-1,1.6 µg/mL
same,MIC µg/ml Strep. pyogenes C-203,Strep. pyogenes C-203,0.8 µg/mL
CCn1cc(C(=O)O)c(=O)c2cc(F)c(N3CCNCC3)cc21 [A Lactic],Conc. of CPD A,[1],198000 µg/mL
same,pH of Solution,[1]; CPD A solutions,4.05
same,pH of Solution Cryst.,[2]; CPD A salt,5.15
same,pH of Solution Lyo.,[2]; CPD A salt,4.6
same,Conc. of CPD A mg/ml Lyo.,[2],256 mg/mL
same,Solution 1 pH dil,[3]; [4],4.3
same,Solution 1 ppt 24 hr,[3]; [4],no
same,Solution 2 pH dil,[3]; [5],4.8
same,Solution 3 pH dil,[3]; [6],4.2
same,Solution 3 ppt 24 hr,[3]; [6],no
same,Solution 2 ppt 24 hr,[3]; [5],no
same,Solution 4 pH dil,[3]; [7],4.5
same,Solution 4 ppt 24 hr,[3]; [7],no
same,pH of Solut.,[3]; undiluted Cpd A solution,4.17
same,Concen. of Cpd A,[3],193000 µg/mL
CCn1cc(C(=O)O)c(=O)c2cc(F)c(N3CCNCC3)nc21 [B Isethionic],Conc. of CPD B,[1],220000 µg/mL
same,pH of Solution,[1]; CPD B solutions,1.01
same,pH of Solution Cryst.,[2]; CPD B salt,2.84
same,pH of Solution Lyo.,[2]; CPD B salt,1.4
same,Solution 2 pH dil,[3]; [8],2.35
same,Solution 3 pH dil,[3]; [9],2.14
same,Solution 4 pH dil,[3]; [10],3.95
same,Solution 1 pH dil,[3]; [11],2.08
same,Solution 1 ppt 4 hr,[3]; [12],no
same,Solution 1 ppt 24 hr,[3]; [11],yes
same,Solution 3 ppt 24 hr,[3]; [13],yes
same,Solution 2 ppt 24 hr,[3]; [14],no
same,Solution 4 ppt 24 hr,[3]; [15],slight
same,Solution 1 pH dil,[3]; [16],3.05
same,Solution 1 ppt 24 hr,[3]; [16],no
same,pH of Solut.,[3]; [17],1.40
same,Concen. of Cpd B,[3]; [18],196000 µg/mL
same,pH of Solut.,[3]; [19],1.01
same,Concen. of Cpd B,[3]; [20],220000 µg/mL
same,pH of Solut.,[3]; [21],2.16
same,Concen. of Cpd B,[3]; [22],48800 µg/mL
CCn1cc(C(=O)O)c(=O)c2cc(F)c(N3CCNCC3)cc21 [A Aspartate],MIC µg/ml Entero cloacae MA 2646,Entero cloacae MA 2646,0.1 µg/mL
same,MIC µg/ml E. coli Vogel,E. coli Vogel,<0.1 µg/mL
same,MIC µg/ml Klebs. pneumoniae MGH-2,Klebs. pneumoniae MGH-2,0.2 µg/mL
same,MIC µg/ml Proteus retgeri M 1771,Proteus retgeri M 1771,<0.1 µg/mL
same,MIC µg/ml Pseudo. aeruginosa UI-18,Pseudo. aeruginosa UI-18,<0.1 µg/mL
same,MIC µg/ml Staph. aureus H 228,Staph. aureus H 228,0.8 µg/mL
same,MIC µg/ml Staph. aureus UC-76,Staph. aureus UC-76,<0.1 µg/mL
same,MIC µg/ml Strep. faecalis MGH-2,Strep. faecalis MGH-2,1.6 µg/mL
same,MIC µg/ml Strep. pneumoniae SV-1,Strep. pneumoniae SV-1,1.6 µg/mL
same,MIC µg/ml Strep. pyogenes C-203,Strep. pyogenes C-203,0.8 µg/mL
CCn1cc(C(=O)O)c(=O)c2cc(F)c(N3CCNCC3)cc21 [A L-Glutamic],Conc. of CPD A,[1],174000 µg/mL
same,pH of Solution,[1]; CPD A solutions,5.08
same,pH of Solution Cryst.,[2]; CPD A salt,5.5
same,pH of Solution Lyo.,[2]; CPD A salt,5.2
same,Conc. of CPD A mg/ml Lyo.,[2],254 mg/mL
same,Solution 1 pH dil,[3]; [4],5.18
same,Solution 1 ppt 24 hr,[3]; [4],no
same,Solution 2 pH dil,[3]; [5],5.05
same,Solution 3 pH dil,[3]; [6],5.05
same,Solution 3 ppt 24 hr,[3]; [6],no
same,Solution 2 ppt 24 hr,[3]; [5],no
same,Solution 4 pH dil,[3]; [7],5.15
same,Solution 4 ppt 24 hr,[3]; [7],no
same,pH of Solut.,[3]; undiluted Cpd A solution,5.08
same,Concen. of Cpd A,[3],174000 µg/mL
CCn1cc(C(=O)O)c(=O)c2cc(F)c(N3CCNCC3)cc21 [A L-Aspartic],Conc. of CPD A,[1],174000 µg/mL
same,pH of Solution,[1]; CPD A solutions,4.88
same,pH of Solution Cryst.,[2]; CPD A salt,4.8
same,pH of Solution Lyo.,[2]; CPD A salt,4.5
same,Conc. of CPD A mg/ml Lyo.,[2],256 mg/mL
same,Solution 1 pH dil,[3]; [4],5.05
same,Solution 1 ppt 24 hr,[3]; [4],no
same,Solution 2 pH dil,[3]; [5],4.83
same,Solution 3 pH dil,[3]; [6],4.84
same,Solution 3 ppt 24 hr,[3]; [6],no
same,Solution 2 ppt 24 hr,[3]; [5],slight
same,Solution 4 pH dil,[3]; [7],5.02
same,Solution 4 ppt 24 hr,[3]; [7],no
same,pH of Solut.,[3]; undiluted Cpd A solution,4.88
same,Concen. of Cpd A,[3],174000 µg/mL
CCn1cc(C(=O)O)c(=O)c2cc(F)c(N3CCNCC3)nc21 [B L-Glutamic],Conc. of CPD B,[1],160000 µg/mL
same,pH of Solution,[1]; CPD B solutions,4.98
same,pH of Solution Cryst.,[2]; CPD B salt,4.84
same,pH of Solution Lyo.,[2]; CPD B salt,4.8
same,Solution 2 pH dil,[3]; [8],5.06
same,Solution 3 pH dil,[3]; [9],4.95
same,Solution 4 pH dil,[3]; [10],5.09
same,Solution 1 pH dil,[3]; [11],5.10
same,Solution 1 ppt 4 hr,[3]; [12],no
same,Solution 1 ppt 24 hr,[3]; [11],yes
same,Solution 3 ppt 24 hr,[3]; [13],slight
same,Solution 2 ppt 4 hr,"[3]; concentrated Cpd B solution diluted 10x with 5% Dextrose, precipitate at 4 hr",slight
same,Solution 2 ppt 24 hr,[3]; [14],slight
same,Solution 4 ppt 24 hr,[3]; [15],slight
same,Solution 1 pH dil,[3]; [16],4.99
same,Solution 1 ppt 24 hr,[3]; [16],no
same,pH of Solut.,[3]; [17],5.20
same,Concen. of Cpd B,[3]; [18],154000 µg/mL
same,pH of Solut.,[3]; [19],4.98
same,Concen. of Cpd B,[3]; [20],160000 µg/mL
same,pH of Solut.,[3]; [21],4.95
same,Concen. of Cpd B,[3]; [22],48200 µg/mL
CCn1cc(C(=O)O)c(=O)c2cc(F)c(N3CCNCC3)nc21 [B L-Aspartic],Conc. of CPD B,[1],165000 µg/mL
same,pH of Solution,[1]; CPD B solutions,4.64
same,pH of Solution Cryst.,[2]; CPD B salt,4.80
same,pH of Solution Lyo.,[2]; CPD B salt,4.65
same,Solution 2 pH dil,[3]; [8],4.83
same,Solution 3 pH dil,[3]; [9],4.71
same,Solution 4 pH dil,[3]; [10],4.94
same,Solution 1 pH dil,[3]; [11],4.82
same,Solution 1 ppt 4 hr,[3]; [12],no
same,Solution 1 ppt 24 hr,[3]; [11],yes
same,Solution 3 ppt 24 hr,[3]; [13],yes
same,Solution 2 ppt 24 hr,[3]; [14],no
same,Solution 4 ppt 24 hr,[3]; [15],no
same,Solution 1 pH dil,[3]; [16],5.54
same,Solution 1 ppt 24 hr,[3]; [16],no
same,pH of Solut.,[3]; [17],4.60
same,Concen. of Cpd B,[3]; [18],190000 µg/mL
same,pH of Solut.,[3]; [19],4.64
same,Concen. of Cpd B,[3]; [20],165000 µg/mL
same,pH of Solut.,[3]; [21],4.48
same,Concen. of Cpd B,[3]; [22],49800 µg/mL
